In data set [1] the target is Adenosine receptor A2a (Homo sapiens) (UniProt P29274). Put plainly: Displacement of [3H]ZM241385 from human recombinant adenosine A2A receptor expressed in human HeLa cell membrane at 10 uM. Type of data set: cell membranes. In general terms: In a radioligand displacement assay an active substance lowers the binding of a labelled ligand.
Data set [2] addresses T1, Adenosine receptor A3 (Homo sapiens) (UniProt P0DMS8).
T1 sequence (whole entry): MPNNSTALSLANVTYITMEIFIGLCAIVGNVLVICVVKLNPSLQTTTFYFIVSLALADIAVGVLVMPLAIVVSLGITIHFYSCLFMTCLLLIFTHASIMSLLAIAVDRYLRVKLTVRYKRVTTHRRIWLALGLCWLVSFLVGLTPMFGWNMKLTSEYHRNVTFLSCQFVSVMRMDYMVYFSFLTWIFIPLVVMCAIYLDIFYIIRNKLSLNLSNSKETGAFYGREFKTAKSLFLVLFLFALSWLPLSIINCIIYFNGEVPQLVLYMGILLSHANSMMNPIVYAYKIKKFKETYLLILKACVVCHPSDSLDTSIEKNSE
Put plainly: Displacement of [3H]NECA from human recombinant adenosine A3 receptor expressed in human HeLa cell membrane at 10 uM. Type of data set: cell membranes.

The target in data set [3] is T2, Adenosine receptor A1 (Homo sapiens) (UniProt P30542).
T2 sequence (whole entry): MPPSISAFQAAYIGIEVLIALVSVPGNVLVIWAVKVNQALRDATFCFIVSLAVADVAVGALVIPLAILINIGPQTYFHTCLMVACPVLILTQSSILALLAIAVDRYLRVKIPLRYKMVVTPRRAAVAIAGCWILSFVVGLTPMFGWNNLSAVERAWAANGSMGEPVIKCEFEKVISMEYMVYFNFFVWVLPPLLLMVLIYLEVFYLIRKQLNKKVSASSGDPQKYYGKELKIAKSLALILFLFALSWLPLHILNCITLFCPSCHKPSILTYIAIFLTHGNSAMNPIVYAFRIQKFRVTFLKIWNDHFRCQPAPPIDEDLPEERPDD
Put plainly: Displacement of [3H]DPCPX from human recombinant adenosine A1 receptor expressed in CHO-A1 cell membrane at 10 uM. Type of data set: cell membranes.

The target of data set [4] is T3, Adenosine receptor A2b (Homo sapiens) (UniProt P29275).
T3 sequence (whole entry): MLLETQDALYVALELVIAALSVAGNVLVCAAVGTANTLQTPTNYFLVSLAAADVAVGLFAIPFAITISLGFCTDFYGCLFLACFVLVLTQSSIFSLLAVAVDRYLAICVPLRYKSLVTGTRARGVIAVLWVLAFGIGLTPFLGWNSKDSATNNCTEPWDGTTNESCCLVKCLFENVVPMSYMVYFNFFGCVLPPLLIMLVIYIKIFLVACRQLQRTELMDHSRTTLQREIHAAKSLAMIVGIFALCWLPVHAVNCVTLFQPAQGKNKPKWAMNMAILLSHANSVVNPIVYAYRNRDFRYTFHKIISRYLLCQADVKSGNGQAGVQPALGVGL
Put plainly: Displacement of [3H]DPCPX from human recombinant adenosine A2B receptor expressed in HEK293 cell membrane at 10 uM. Type of data set: cell membranes.

The next data set deals with T4, Adenosine receptor A1 (Homo sapiens, UniProt P30542).
T4 sequence (P30542 whole entry): T2 sequence (whole entry)
As to the kind of experiment: Displacement of [3H]DPCPX from human recombinant adenosine A1 receptor expressed in CHO-A1 cell membrane. Type of data set: cell membranes.

Data set [5] can be described thus: Solubility in glycerin. Type of data set: physicochemical.
A short description of data set [6]: Solubility in water. Type of data set: physicochemical.
A short description of data set [7]: Solubility in di(ethylene glycol). Type of data set: physicochemical.

In brackets after ≈: the same amount, converted by molar mass.

Adenosine receptor A2a (Homo sapiens), sequence (P29274 whole entry): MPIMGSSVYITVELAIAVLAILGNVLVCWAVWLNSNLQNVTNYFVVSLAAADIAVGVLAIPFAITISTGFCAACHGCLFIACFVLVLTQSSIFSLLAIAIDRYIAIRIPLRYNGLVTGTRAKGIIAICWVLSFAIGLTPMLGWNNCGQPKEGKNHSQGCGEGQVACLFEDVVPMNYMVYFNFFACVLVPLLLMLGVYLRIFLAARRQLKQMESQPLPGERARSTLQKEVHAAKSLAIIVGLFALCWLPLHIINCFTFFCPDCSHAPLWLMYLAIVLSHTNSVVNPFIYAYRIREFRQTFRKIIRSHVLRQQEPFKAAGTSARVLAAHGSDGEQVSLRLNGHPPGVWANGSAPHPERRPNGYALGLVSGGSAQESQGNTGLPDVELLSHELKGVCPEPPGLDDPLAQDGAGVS

The term inhibition denotes the percentage by which the read-out fell short of the control. What is called Ki is a measure of affinity in units of concentration, obtained from inhibition or displacement. Turning to `C=CCCCCCCCCCOCCOCCOCCOCCn1cnc2c1c(=O)n(C)c(=O)n2C`, the inhibition turned out to be 18% in data set [1], 19% in data set [2], 53% in data set [3] and 47% in data set [4]. Also, the Ki on Adenosine receptor A1 came out at 5 µM.
One may read the solubility as the dissolved amount per volume that the medium holds. Turning to `COCCOCCOCc1nc2c([nH]1)c(=O)n(C)c(=O)n2C`, the inhibition in data set [1] turned out to be 20%; in data set [2], 1%; in data set [3], 37%; in data set [4], 10%. In addition, the solubility entry in data set [5] was “Insoluble”; in data set [6] it was 14 mM (≈ 4370 µg/mL); in data set [7] it was 10 mM (≈ 3120 µg/mL).
Take `Cn1c(=O)c2c(ncn2CCOCCOCCOCCN=[N+]=[N-])n(C)c1=O`: the inhibition in data set [1] was 17%; in data set [2], 2%; in data set [3], 24%; in data set [4] it was 3%.
